Laboratory results from patent publication US11572362B2, “Pyrrolo[1,2-b]pyridazine derivatives” (Gilead Sciences, Inc., priority 2018, dated 2023).

Tests used:
IRAK4 = IRAK4 (Homo sapiens (Human), UniProt Q9NWZ3); experiment: IRAK4 Biochemical Assay (TR-FRET/HTRF); conditions: IRAK4 enzyme 0.75 nM, 500 μM ATP, 2 μM STK1 peptide, 120 min
Method: IRAK4 Biochemical Assay Procedure:
IRAK4 enzyme (Carna Biosciences, Chuo-ku, Kobe, Japan) activity was measured by detecting phosphorylated peptide substrate formation using an antibody against the phosphorylated peptide substrate. This is a time-resolved fluorescence resonance energy transfer (TR-FRET) immunoassay, based on the STK1 KinEASE Assay (Cisbio, Bedford, Mass.). The assay was designed as a simple two-step, endpoint assay (a 5 μl enzyme reaction followed by 5 μl stop and detect Solution) performed in ProxiPlate-384 Plus plates (Perkin Elmer, Waltham, Mass.). Staurosporine, a non-selective kinase inhibitor was used as a positive control. Compounds diluted in DMSO were spotted into 384 well plates using a Labcyte® Echo 550 Liquid Handling System prior to addition of IRAK4 enzyme and peptide substrate. Reaction solutions were delivered using a Multi-Flo (Bio-Tek Instruments). The enzyme and peptide solution was incubated with compound for 15 minutes at room temp before the reaction was initiated by the addition of ATP. The standard 5 μl reaction mixture contained 500 μM ATP, 2 μM peptide (STK1 Peptide), 0.75 nM of IRAK4 in reaction buffer (50 mM HEPES, pH 7.0, 0.02% NaN3, 0.01% BSA, 0.1 mM Orthovanadate, 5 mM MgCl2, 0.025% NP-40, 1 mM DTT). After 120 min of incubation at room temperature, 5 μl of Stop and Detect Solution (1:100 Cryptate labeled anti-phosphorylated peptide antibody solution and 125 nM Tracer in a 50 mM HEPES pH 7.0 detection buffer containing sufficient EDTA) was added. The plate was then further incubated for 60 minutes at room temperature and read on Envision 2103 Multilabeled reader (PerkinElmer) with excitation/emission/FRET emission at 340 nm/615 nm/665 nm, respectively. Fluorescence intensities at 615 nm and 665 nm emission wavelengths were expressed as a ratio (665 nm/615 nm). Percentage of inhibition was calculated as below: % Inhibition=100×(RatioSample−Ratio0% Inhibition)/(Ratio100% Inhibition−Ratio0% Inhibition)
The 0% inhibition value comes from control wells lacking inhibitor. The 100% inhibition value comes from control wells containing a saturating amount of known inhibitor staurosporine.

TNFα = experiment: IRAK4 Monocyte TNFα Cell Based Assay; conditions: Monocyte; cryopreserved human monocytes, 50 pg/ml LPS, compound 1 hour pre-treatment, 4 hours stimulation, TNFα by TR-FRET
Method: IRAK4 Monocyte TNFα Cell Based Assay Procedure:
The cell suspension was then plated at a density of 5,000 cells/well onto black 384 well Greiner clear bottom plates. Plates were pre-spotted with test compounds and serially diluted in DMSO where 40 nL/well were delivered using the Echo 550 acoustic liquid dispenser (Labcyte®) for a final DMSO concentration of 0.1%. Plated cells were treated with compound for 1 hour at 37° C. Cells were then stimulated with 50 pg/ml of LPS (Sigma) excluding outside columns of plate used for unstimulated cell control wells. Cells were incubated for an additional 4 hours at 37° C. Cells were then spun out of the media and 5 μl of sample were taken and analyzed for total TNFα content using the TR-FRET Human TNFα detection system (CisBio). This system utilizes two labeled antibodies (cryptate and XL665) that bind to two different epitopes of the TNFα molecule and produce FRET signal proportional to the concentration of TNFα in the sample. Detection antibodies are mixed 50:50 and 5 μL were dispensed into each well. Plates were covered with clear seals and incubated at room temp overnight. The following morning plates were read using an Envision 2103 Multilabeled reader (PerkinElmer) with excitation/emission/FRET emission at 340 nm/615 nm/665 nm, respectively. Fluorescence intensities at 615 nm and 665 nm emission wavelengths were expressed as a ratio (665 nm/615 nm). Percent of control was calculated as follows: % Control=100×(RatioSample−Ratio0% Stimulation)/(Ratio100% Stimulation−Ratio0% Stimulation)
where unstimulated cells (0% stimulation) were the negative control and stimulated cells (100% stimulation) were used as the positive control.

Chain of IRAK4 (Q9NWZ3 whole entry): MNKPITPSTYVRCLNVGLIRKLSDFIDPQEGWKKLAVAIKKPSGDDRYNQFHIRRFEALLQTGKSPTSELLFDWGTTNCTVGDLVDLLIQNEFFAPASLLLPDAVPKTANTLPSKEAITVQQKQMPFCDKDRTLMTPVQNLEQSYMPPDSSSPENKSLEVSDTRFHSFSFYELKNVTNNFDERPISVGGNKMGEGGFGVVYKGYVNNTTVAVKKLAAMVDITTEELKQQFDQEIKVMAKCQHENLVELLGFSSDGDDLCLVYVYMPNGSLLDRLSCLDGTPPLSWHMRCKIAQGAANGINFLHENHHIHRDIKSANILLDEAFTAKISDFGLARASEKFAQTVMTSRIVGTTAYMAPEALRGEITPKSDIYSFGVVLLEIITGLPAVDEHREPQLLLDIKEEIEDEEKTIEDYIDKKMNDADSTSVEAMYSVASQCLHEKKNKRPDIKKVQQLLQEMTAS

IC50 (IRAK4) [nM]	EC50 (TNFα) [nM]	SMILES
< 1	19	CC(C)(O)[C@H](F)CNC(=O)c1cnc(-c2ccc3cc(C#N)cnn23)cc1NC12CCC(c3nnc(C(F)F)o3)(CC1)CC2 [Compound 62, (R)-6-(3-cyanopyrrolo[1,2-b]pyridazin-7-yl)-4-((4-(5-(difluoromethyl)-1,3,4-oxadiazol-2-yl)bicyclo[2.2.2]octan-1-yl)amino)-N-(2-fluoro-3-hydroxy-3-methylbutyl)nicotinamide]
1	200	CC(C)(O)[C@H](F)CNC(=O)c1cnc(-c2ccc3cc(C#N)cnn23)cc1N[C@H]1CC[C@H](n2cc(C3COC3)nn2)CC1 [Compound 33, 6-(3-cyanopyrrolo[1,2-b]pyridazin-7-yl)-N-((R)-2-fluoro-3-hydroxy-3-methylbutyl)-4-(((1r,4R)-4-(4-(oxetan-3-yl)-1H-1,2,3-triazol-1-yl)cyclohexyl)amino)nicotinamide]
1	36	CC(C)(O)[C@H](F)CNC(=O)c1cnc(-c2ccc3cc(C#N)cnn23)cc1N[C@H]1CC[C@H](c2ccn(C(F)F)n2)CC1 [Compound 8, 6-(3-cyanopyrrolo[1,2-b]pyridazin-7-yl)-4-(((1r,4R)-4-(1-(difluoromethyl)-1H-pyrazol-3-yl)cyclohexyl)amino)-N-((R)-2-fluoro-3-hydroxy-3-methylbutyl)nicotinamide]
< 1	39	CC(C)(O)[C@H](F)CNC(=O)c1cnc(-c2ccc3cc(C#N)cnn23)cc1NC1CCC(F)(c2nnc(C(F)F)o2)CC1 (stereo partly drawn) [Compound 43, (R)-6-(3-cyanopyrrolo[1,2-b]pyridazin-7-yl)-4-((4-(5-(difluoromethyl)-1,3,4-oxadiazol-2-yl)-4-fluorocyclohexyl)amino)-N-(2-fluoro-3-hydroxy-3-methylbutyl)nicotinamide]
8	55	Cc1c(C2CCC(Nc3cc(-c4ccc5cc(C#N)cnn45)ncc3C(=O)NC[C@@H](F)C(C)(C)O)CC2)cnn1C(F)F (stereo partly drawn) [Compound 10, (R)-6-(3-cyanopyrrolo[1,2-b]pyridazin-7-yl)-4-((4-(1-(difluoromethyl)-5-methyl-1H-pyrazol-4-yl)cyclohexyl)amino)-N-(2-fluoro-3-hydroxy-3-methylbutyl)nicotinamide]
2	89	CC(C)(O)[C@H](F)CNC(=O)c1cnc(-c2ccc3cc(C#N)cnn23)cc1N[C@H]1CC[C@H](c2cc(C(F)F)no2)CC1 [Compound 47, 6-(3-cyanopyrrolo[1,2-b]pyridazin-7-yl)-4-(((1r,4R)-4-(3-(difluoromethyl)isoxazol-5-yl)cyclohexyl)amino)-N-((R)-2-fluoro-3-hydroxy-3-methylbutyl)nicotinamide]
< 1	91	Cc1cnn([C@H]2CC[C@H](Nc3cc(-c4ccc5cc(C#N)cnn45)ncc3C(=O)NC[C@@H](F)C(C)(C)O)CC2)c1 [Compound 26, 6-(3-cyanopyrrolo[1,2-b]pyridazin-7-yl)-N-((R)-2-fluoro-3-hydroxy-3-methylbutyl)-4-(((1r,4R)-4-(4-methyl-1H-pyrazol-1-yl)cyclohexyl)amino)nicotinamide]
1	33	CC(C)(O)[C@H](F)CNC(=O)c1cnc(-c2ccc3cc(C#N)cnn23)cc1N[C@H]1CC[C@H](c2cn(C(F)F)cn2)CC1 [Compound 17, 6-(3-cyanopyrrolo[1,2-b]pyridazin-7-yl)-4-(((1r,4R)-4-(1-(difluoromethyl)-1H-imidazol-4-yl)cyclohexyl)amino)-N-((R)-2-fluoro-3-hydroxy-3-methylbutyl)nicotinamide]
< 1	9	CC(C)(O)[C@H](F)CNC(=O)c1cnc(-c2ccc3cc(C#N)cnn23)cc1N[C@H]1CC[C@H](c2cnn(C(F)F)c2)CC1 [Compound 3, 6-(3-cyanopyrrolo[1,2-b]pyridazin-7-yl)-4-(((1r,4R)-4-(1-(difluoromethyl)-1H-pyrazol-4-yl)cyclohexyl)amino)-N-((R)-2-fluoro-3-hydroxy-3-methylbutyl)nicotinamide]
< 1	28	Cc1nc([C@H]2CC[C@H](Nc3cc(-c4ccc5cc(C#N)cnn45)ncc3C(=O)NC[C@@H](F)C(C)(C)O)CC2)no1 [Compound 44, 6-(3-cyanopyrrolo[1,2-b]pyridazin-7-yl)-N-((R)-2-fluoro-3-hydroxy-3-methylbutyl)-4-(((1r,4R)-4-(5-methyl-1,2,4-oxadiazol-3-yl)cyclohexyl)amino)nicotinamide]
2	187	CC(C)(O)[C@H](F)CNC(=O)c1cnc(-c2ccc3cc(C#N)cnn23)cc1N[C@H]1CC[C@H](n2nccc2C(F)F)CC1 [Compound 28, 6-(3-cyanopyrrolo[1,2-b]pyridazin-7-yl)-4-(((1r,4R)-4-(5-(difluoromethyl)-1H-pyrazol-1-yl)cyclohexyl)amino)-N-((R)-2-fluoro-3-hydroxy-3-methylbutyl)nicotinamide]
< 1	24	CC(C)(O)[C@H](F)CNC(=O)c1cnc(-c2ccc3cc(C#N)cnn23)cc1N[C@H]1CC[C@H](n2cnnn2)CC1 [Compound 38, 4-(((1r,4R)-4-(1H-tetrazol-1-yl)cyclohexyl)amino)-6-(3-cyanopyrrolo[1,2-b]pyridazin-7-yl)-N-((R)-2-fluoro-3-hydroxy-3-methylbutyl)nicotinamide]
4	136	CC(C)(O)[C@H](F)CNC(=O)c1cnc(-c2ccc3cc(C#N)cnn23)cc1N[C@H]1CC[C@H](n2cc(C(F)(F)F)cn2)CC1 [Compound 30, 6-(3-cyanopyrrolo[1,2-b]pyridazin-7-yl)-N-((R)-2-fluoro-3-hydroxy-3-methylbutyl)-4-(((1r,4R)-4-(4-(trifluoromethyl)-1H-pyrazol-1-yl)cyclohexyl)amino)nicotinamide]
2	60	CC(C)(O)[C@H](F)CNC(=O)c1cnc(-c2ccc3cc(C#N)cnn23)cc1NC1CCC(c2ncn(C(F)F)n2)CC1 (stereo partly drawn) [Compound 21, (R)-6-(3-cyanopyrrolo[1,2-b]pyridazin-7-yl)-4-((4-(1-(difluoromethyl)-1H-1,2,4-triazol-3-yl)cyclohexyl)amino)-N-(2-fluoro-3-hydroxy-3-methylbutyl)nicotinamide]
1	21	CC(C)(O)[C@H](F)CNC(=O)c1cnc(-c2ccc3cc(C#N)cnn23)cc1NC1CCC(c2cnc(C(F)F)nc2)CC1 (stereo partly drawn) [Compound 59, (R)-6-(3-cyanopyrrolo[1,2-b]pyridazin-7-yl)-4-((4-(2-(difluoromethyl)pyrimidin-5-yl)cyclohexyl)amino)-N-(2-fluoro-3-hydroxy-3-methylbutyl)nicotinamide]
1	50	Cc1nnc([C@H]2CC[C@H](Nc3cc(-c4ccc5cc(C#N)cnn45)ncc3C(=O)NC[C@@H](F)C(C)(C)O)CC2)s1 [Compound 52, 6-(3-cyanopyrrolo[1,2-b]pyridazin-7-yl)-N-((R)-2-fluoro-3-hydroxy-3-methylbutyl)-4-(((1r,4R)-4-(5-methyl-1,3,4-thiadiazol-2-yl)cyclohexyl)amino)nicotinamide]
1	66	COCc1nnc([C@H]2CC[C@H](Nc3cc(-c4ccc5cc(C#N)cnn45)ncc3C(=O)NC[C@@H](F)C(C)(C)O)CC2)o1 [Compound 40, 6-(3-cyanopyrrolo[1,2-b]pyridazin-7-yl)-N-((R)-2-fluoro-3-hydroxy-3-methylbutyl)-4-(((1r,4R)-4-(5-(methoxymethyl)-1,3,4-oxadiazol-2-yl)cyclohexyl)amino)nicotinamide]
